These results are taken from the Deep4Chem optical property database.

A short description of the data set: solvent given as SMILES.

As to `c1ccc2sc(-c3ccc(-c4nnc(-c5ccc(-c6nnc(-c7ccc(-c8cc9ccccc9s8)s7)o6)cc5)o4)s3)cc2c1`, the emission maximum by setting is: (in C1COCCO1) 397 nm; (in CC#N) 399 nm; (in CC(=O)N(C)C) 406 nm; (in CCCCCCCCCCO) 389 nm; (in CCCCCCCCO) 399 nm; (in CCCCCCO) 399 nm. The emission maximum is, setting by setting: (in CCCCO) 399 nm; (in CCO) 400 nm; (in CS(C)=O) 423 nm; (in Cc1ccccc1) 399 nm; (in ClC(Cl)Cl) 399 nm.

On to `CC[N+](CC)=c1ccc2cc3oc4cc(N)ccc4c3oc-2c1`, for which the emission maximum (in CCO) is 629 nm, the emission maximum (in ClCCl) stood at 623 nm and the emission maximum (in O) is listed as 627 nm.

`COc1ccc(-c2cc(-c3ccc(C)cc3)nc3c(C#N)c(N4CCCC4)nc(N)c23)cc1`: the emission maximum by setting is: (in CC#N) 521 nm; (in CC(C)=O) 517 nm; (in CC(C)O) 511 nm; (in CO) 519 nm; (in ClC(Cl)Cl) 504 nm; (in ClCCl) 509 nm. In addition, the emission maximum (in c1ccccc1) is reported as 513 nm.

Regarding `COc1ccc2[nH]cc(/C=C/C3=[NH+]c4cccc5cccc3c45)c2c1`, the emission maximum (in CO) is recorded as 583 nm.

As to `Cc1cc2cc(C)c3c4ccccc4[nH]c3c2o1`, the emission maximum (in ClCCl) came out at 338 nm.

Consider `O=C1c2ccccc2-c2c(-c3ccc([N+](=O)[O-])cc3)c(-c3ccc([N+](=O)[O-])cc3)c(-c3ccccc3)c3cccc1c23`, for which the emission maximum is, setting by setting: (in CC#N) 496 nm; (in CO) 509 nm.

Compound `O=C1c2ccccc2NCN1Cc1ccccc1` showed an emission maximum (in CC#N) of 416 nm; an emission maximum (in CCCCCCCCCCCCCCCC) of 381 nm; an emission maximum (in CO) of 443 nm; an emission maximum (in ClC(Cl)Cl) of 398 nm; an emission maximum (in c1ccccc1) of 395 nm.

Turning to `CN(C)c1ccc2nc(-c3ccc(C(=O)Nc4ccccc4)cc3)sc2c1`, the emission maximum by setting is: (in C1CCCCC1) 427 nm; (in CC#N) 553 nm; (in CC(C)O) 534 nm; (in CO) 565 nm; (in CS(C)=O) 564 nm; (in ClC(Cl)Cl) 494 nm. In addition, the emission maximum (in c1ccccc1) amounted to 475 nm.

With `C[Si](C)(c1cccc2cc3ccccc3cc12)[Si](C)(C)c1cccc2cc3ccccc3cc12`, the emission maximum runs as follows: (in C1CCCCC1) 412 nm; (in CC#N) 412 nm.

Compound `COc1cc(C2=c3c(c4ccc(C(C)(C)C)cc4c4c(OC)c(OC)c(OC)cc34)=[N+]3C2=Nc2c(-c4cc(OC)c(OC)c(OC)c4)c4c5cc(OC)c(OC)c(OC)c5c5cc(C(C)(C)C)ccc5c4n2[B-]3(F)F)cc(OC)c1OC` showed an emission maximum (in Cc1ccccc1) of 820 nm.

`CC1(C)C(/C=C/C=C/c2cc3ccc(O)cc3oc2=O)=[N+](CCCS(=O)(=O)[O-])c2ccc(S(=O)(=O)O)cc21` returned an emission maximum (in CCO) of 654 nm, an emission maximum (in CS(C)=O) of 655 nm and an emission maximum (in O) of 722 nm.

Consider `N#Cc1cc(-n2c3ccccc3c3ncccc32)c(-n2c3ccccc3c3ncccc32)cc1C#N`, for which the emission maximum by setting is: (in CC#N) 520.47 nm; (in CCCCCC) 443.72 nm; (in Cc1ccccc1) 450.7 nm; (in ClCCl) 476.51 nm; (in c1cc(-n2c3ccccc3c3ccccc32)cc(-n2c3ccccc3c3ccccc32)c1) 477.27 nm.

`CN(C)c1ccc(/C=C/c2cc(/C=C/c3ccc(N(C)C)cc3)nc(N)n2)cc1` had an emission maximum (in Cc1ccccc1) of 466 nm and an emission maximum (in ClC(Cl)Cl) of 511 nm.

For `CCCCCCCCCCCCCCCCn1c(-c2cc(-c3nc4ccccc4n3CCCCCCCCCCCCCCCC)cc(-c3nc4ccccc4n3CCCCCCCCCCCCCCCC)c2)nc2ccccc21`, the emission maximum (in C1CCOC1) came out at 363 nm.

Take `CCCCCCOc1cc(C=O)c(OCCCCCC)cc1C=O`: the emission maximum (in ClCCl) stood at 467 nm.

In turn, `COC(=O)C(Cc1ccc2oc(-c3ccc(Nc4ccccc4)cc3)nc2c1)NC(=O)OC(C)(C)C` (centres undefined) came in with an emission maximum (in C1CCCCC1) of 382 nm; an emission maximum (in C1CCOC1) of 419.01 nm; an emission maximum (in C1COCCO1) of 410.51 nm; an emission maximum (in CC1CCCO1) of 425.01 nm; an emission maximum (in CC1COC(=O)O1) of 457.5 nm; an emission maximum (in CC#N) of 452 nm. For the same compound, the emission maximum (in CC(C)=O) amounted to 439.5 nm; the emission maximum (in CC(C)CC(C)(C)C) stood at 384 nm; the emission maximum (in CC(C)CO) came to 438 nm; the emission maximum (in CC(C)O) is 440.51 nm; the emission maximum (in CC(C)OC(C)C) is reported as 426 nm; the emission maximum (in CC(O)CO) is on record as 438 nm. For the same compound, the emission maximum reads like this: (in CCC(C)CC) 382.98 nm; (in CCCCC) 382 nm; (in CCCCCC) 383.49 nm; (in CCCCCCCCC) 384.5 nm; (in CCCCCCCCCC) 385 nm; (in CCCCCCCO) 434.5 nm. The emission maximum (in CCCCCCO) is on record as 429 nm; the emission maximum (in CCCCCO) stood at 424 nm; the emission maximum (in CCCCO) is listed as 441.5 nm; the emission maximum (in CCO) came out at 453.49 nm; the emission maximum (in CCOC(C)=O) is given as 412 nm; the emission maximum (in CCOCC) came to 409.5 nm. Moreover, the emission maximum is 447.51 nm (in CN(C)C=O); 457 nm (in CO); 440.01 nm (in COCCOC); 459.5 nm (in CS(C)=O); 401.49 nm (in Cc1ccccc1); 401.49 nm (in Cc1ccccc1C). This compound showed an emission maximum (in ClC(Cl)Cl) of 420.01 nm; an emission maximum (in ClCCl) of 415.51 nm; an emission maximum (in NC=O) of 447.01 nm; an emission maximum (in OC1CCCCC1) of 440.01 nm; an emission maximum (in OCCO) of 443.01 nm; an emission maximum (in c1ccccc1) of 398.5 nm.

Take `Cn1c2cc(N3CCCCC3)c(F)cc2c(=O)c2cc(F)c(N3CCCCC3)cc21`: the emission maximum (in CCO) was found to be 455 nm.

In the case of `c1ccc2c(c1)-c1ccccc1C21c2ccccc2-c2c1c1c3ccccc3ccc1c1ccccc21`, for the setting “in C1CCOC1”, the emission maximum is reported as 417 nm.

As for `Nc1ccc(-c2ccc(N)cc2)cc1`, the emission maximum is, setting by setting: (in C1CCOC1) 394 nm; (in C1COCCO1) 392 nm; (in CC#N) 393 nm; (in CCCCCC) 373 nm; (in CCOC(C)=O) 391 nm; (in CN(C)C=O) 403 nm. In addition, the emission maximum was found to be 397 nm (in CO); 404 nm (in CS(C)=O); 395 nm (in Cc1ccccc1); 384 nm (in ClC(Cl)Cl); 384 nm (in ClCCl); 401 nm (in O).

For the compound `O=c1cc(-c2ccccc2)oc(-c2ccc(-c3nc4ccccn4c3NC3CCCCC3)cc2)c1`, the emission maximum (in ClCCl) stood at 508 nm.

`C(=C\c1nc2ccccc2s1)/c1ccccc1`: the emission maximum is, setting by setting: (in C1CCCCC1) 390 nm; (in CO) 400 nm.

For the setting “in ClCCl”, `C(S/C=C/c1ccc(-c2ccc(/C=C/SC=C3CCCCCC3)cc2)cc1)=C1CCCCCC1` had an emission maximum of 434 nm.

In the case of `CCOC(=O)c1c(-c2cc3ccc(OCC=C(C)C)cc3oc2=O)nn(-c2cccc(C)c2)c1C(=O)OCC`, the emission maximum (in ClCCl) is given as 425 nm.

Take `O=C1c2ccccc2-c2ccccc21`: the emission maximum is on record as 463 nm (in C1CCCCC1), 507 nm (in CC#N), 553 nm (in CCO) and 485 nm (in c1ccccc1).

Turning to `COc1ccc(-c2ccc(C(=O)NC(C)(C)C)c3c2ccc2c4ccccc4c4ccccc4c23)cc1`, the emission maximum (in ClCCl) was 420 nm.

As for `CC(C)(C)c1ccc2c(c1)c1cc(C(C)(C)C)ccc1n2-c1ccc(-c2nc3cc(C#N)c(C#N)cc3nc2-c2ccc(-n3c4ccc(C(C)(C)C)cc4c4cc(C(C)(C)C)ccc43)cc2)cc1`, where the note is “in Cc1ccccc1”, the emission maximum is recorded as 544 nm.

On to `Oc1ccccc1/C=N/N=C/c1ccccc1O`, for which the emission maximum amounted to 588.24 nm (in CC#N); 583.09 nm (in CC(C)CCCC(C)CCCC(C)CCCCC(C)CCCC(C)CCCC(C)C); 578.03 nm (in CCCCCC); 581.4 nm (in CCCCCCCCC); 581.4 nm (in CCCCCCCCCCCCCCCC); 584.8 nm (in CCCCl). Also, the emission maximum (in CCN(CC)CC) is 576.37 nm; the emission maximum (in CCO) stood at 579.71 nm; the emission maximum (in CCOCC) is 588.24 nm; the emission maximum (in CO) worked out at 573.07 nm; the emission maximum (in OC(C(F)(F)F)C(F)(F)F) is recorded as 571.43 nm; the emission maximum (in OCC(F)(F)F) came to 573.07 nm. Moreover, the emission maximum (in OCCO) came to 584.8 nm.

In turn, `Cc1ccc(-c2oc3cccc4c5c(-c6ccc(C)cc6)/c(=N/S(=O)(=O)C(F)(F)F)oc6cccc(c2c34)c65)cc1` registered an emission maximum (in ClC(Cl)Cl) of 577 nm.

On to `COC1=[N+]2C(=C(c3ccccc3)c3ccc(OC)n3[B-]2(F)F)C=C1SC#N`, for which the emission maximum reads like this: (in CC#N) 539 nm; (in CCCCCC) 542 nm; (in CCOC(C)=O) 543 nm; (in CO) 540 nm; (in ClCCl) 543 nm.

For `CCN(CC)c1ccc(-c2ccc(-c3nc4ccccc4c(=O)[nH]3)s2)cc1`, the emission maximum runs as follows: (in CC#N) 541 nm; (in Cc1ccccc1) 490 nm.
